Consider six compounds from patent EP4596574A1, “GLP-1/GCG/GIP TRIPLE-RECEPTOR AGONIST AND USE THEREOF” (Sunshine Lake Pharma Co., Ltd., priority 2022, dated 2024).

Starred links: 1 amine or outer side, 2 acyl side, 3 side chain; linkers in the order of their positions; H or OH if unused. Non-standard residues stand in square brackets, D forms with d. Residues, ends and D or L forms follow the SMILES beside them. Groups on a side chain read outwards from the residue. *: point of attachment. C20 diacid = O=C(O)CCCCCCCCCCCCCCCCCCC(=O)*; C18 diacid = O=C(O)CCCCCCCCCCCCCCCCC(=O)*; αMePhe(2-F) = C[C@](N)(Cc1ccccc1F)C(=O)O; γGlu = O=C(O)[C@H](CCC(=O)[*:2])N[*:1]; AEEA = NCCOCCOCC(=O)O; Aib = CC(C)(N)C(=O)O

The EC50 is the concentration at which the effect is half-maximal.

What all share (type): cell-based
For one experiment, the target named is T1, GCGR (Homo sapiens, UniProt P47871).
T1 construct: expressed in transfected cells; host or cells: HEK293 (HEK293-GCGR)
The experiment is described as follows: In vitro cell activity, cAMP production in HEK293 cells expressing GCGR. To be noted: HEK293-GCGR cells, cAMP; read-out: GCGR (EC50). Put shortly: (§1)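 Cells were plated at 4×10^5 cells/mL, and detection reagents (cAMP-d2, anti-cAMP cryptate, 1:1) were incubated 1 h at room temperature in the dark or overnight at 4 °C.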
A general note: cAMP levels reflect the balance of adenylyl cyclase and phosphodiesterase activity.

In a further experiment the target is T2, GLP-1R (Homo sapiens, UniProt P43220).
T2 construct: expressed in transfected cells; host or cells: HEK293 (HEK293-GLP-1R)
The experiment is described as follows: In vitro cell activity, cAMP production in HEK293 cells expressing GLP-1R. Conditions: HEK293-GLP-1R cells, cAMP; read-out: GLP-1R (EC50). Put shortly:
as §1

The next experiment addresses T3, GIPR (Homo sapiens, UniProt P48546).
T3 construct: expressed in transfected cells; host or cells: HEK293 (HEK293-GIPR)
T3 sequence (P48546 22-466): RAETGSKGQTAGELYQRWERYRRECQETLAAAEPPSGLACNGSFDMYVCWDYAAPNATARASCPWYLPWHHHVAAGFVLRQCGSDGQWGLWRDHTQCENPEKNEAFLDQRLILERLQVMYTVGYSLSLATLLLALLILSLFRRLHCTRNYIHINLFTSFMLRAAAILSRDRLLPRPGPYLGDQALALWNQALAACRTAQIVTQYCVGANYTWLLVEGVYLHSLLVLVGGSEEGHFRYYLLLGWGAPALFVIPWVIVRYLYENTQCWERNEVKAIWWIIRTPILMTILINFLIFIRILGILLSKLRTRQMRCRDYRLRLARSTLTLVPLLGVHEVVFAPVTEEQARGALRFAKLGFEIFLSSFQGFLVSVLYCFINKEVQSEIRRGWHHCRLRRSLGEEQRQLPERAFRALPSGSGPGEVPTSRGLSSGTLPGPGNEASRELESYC
The experiment is described as follows: In vitro cell activity, cAMP production in HEK293 cells expressing GIPR. To be noted: HEK293-GIPR cells, cAMP; read-out: GIPR (EC50). Put shortly: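 cAMP accumulation is quantified by homogeneous TR-FRET (cAMP-d2 plus anti-cAMP cryptate) in GIPR-expressing HEK293 cells seeded from a 4×10^5 cells/mL suspension and treated with compound. The signal ratio is plotted against concentration and fitted to a four-parameter curve to give EC50.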

T1 sequence (P47871 26-477, species assumed): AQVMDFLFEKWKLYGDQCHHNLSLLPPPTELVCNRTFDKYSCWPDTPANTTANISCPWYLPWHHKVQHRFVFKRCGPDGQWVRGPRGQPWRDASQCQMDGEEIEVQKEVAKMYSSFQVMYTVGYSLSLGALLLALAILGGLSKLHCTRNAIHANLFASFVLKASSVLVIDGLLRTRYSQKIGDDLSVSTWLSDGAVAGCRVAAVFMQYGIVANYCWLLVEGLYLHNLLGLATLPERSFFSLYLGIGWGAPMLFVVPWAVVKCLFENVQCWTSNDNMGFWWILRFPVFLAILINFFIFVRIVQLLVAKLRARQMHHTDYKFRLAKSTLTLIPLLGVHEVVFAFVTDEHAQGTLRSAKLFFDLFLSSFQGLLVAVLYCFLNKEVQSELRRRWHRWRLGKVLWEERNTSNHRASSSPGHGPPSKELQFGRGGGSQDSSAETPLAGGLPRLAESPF
T2 sequence (P43220 24-463, species assumed): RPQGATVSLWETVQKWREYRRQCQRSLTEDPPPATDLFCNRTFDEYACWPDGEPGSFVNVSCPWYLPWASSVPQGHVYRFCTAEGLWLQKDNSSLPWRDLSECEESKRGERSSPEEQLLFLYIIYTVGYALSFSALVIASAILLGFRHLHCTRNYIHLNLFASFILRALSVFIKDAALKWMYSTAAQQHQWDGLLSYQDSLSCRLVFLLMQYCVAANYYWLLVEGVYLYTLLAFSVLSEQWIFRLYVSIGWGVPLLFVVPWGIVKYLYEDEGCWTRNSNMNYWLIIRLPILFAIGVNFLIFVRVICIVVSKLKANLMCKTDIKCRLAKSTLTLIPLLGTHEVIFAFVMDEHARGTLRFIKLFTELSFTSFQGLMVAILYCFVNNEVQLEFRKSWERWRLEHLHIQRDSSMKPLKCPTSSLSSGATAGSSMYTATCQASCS

In the case of `CC[C@H](C)[C@H](NC(=O)[C@H](CO)NC(=O)[C@H](Cc1ccc(O)cc1)NC(=O)[C@H](CC(=O)O)NC(=O)[C@H](CO)NC(=O)[C@@H](NC(=O)[C@](C)(Cc1ccccc1F)NC(=O)[C@@H](NC(=O)CNC(=O)[C@H](CCC(N)=O)NC(=O)C(C)(C)NC(=O)[C@@H](N)Cc1ccc(O)cc1)[C@@H](C)O)[C@@H](C)O)C(=O)N[C@@H](CC(C)C)C(=O)N[C@@H](CC(C)C)C(=O)N[C@@H](CC(=O)O)C(=O)N[C@@H](CCC(=O)O)C(=O)N[C@@H](CCCCNC(=O)COCCOCCNC(=O)CC[C@H](NC(=O)CCCCCCCCCCCCCCCCC(=O)O)C(=O)O)C(=O)N[C@@H](CCCCN)C(=O)N[C@@H](CCC(N)=O)C(=O)NC(C)(C)C(=O)N[C@@H](CCC(=O)O)C(=O)N[C@@H](Cc1ccccc1)C(=O)N[C@H](C(=O)N[C@@H](CCC(=O)O)C(=O)N[C@@H](Cc1c[nH]c2ccccc12)C(=O)N[C@@H](CC(C)C)C(=O)N[C@@H](CC(C)C)C(=O)N[C@@H](C)C(=O)NCC(=O)NCC(=O)N1CCC[C@H]1C(=O)N[C@@H](CO)C(=O)N[C@@H](CO)C(=O)NCC(=O)N[C@@H](C)C(=O)N1CCC[C@H]1C(=O)N1CCC[C@H]1C(=O)N1CCC[C@H]1C(=O)N[C@@H](CO)C(N)=O)[C@@H](C)CC` [HEC-PT129], the concentration for a half-maximal effect (EC50) came to 0.525 nM on GCGR, 0.141 nM at GLP-1R and 0.0439 nM at GIPR.
The like results for `CC[C@H](C)[C@H](NC(=O)[C@H](CCC(=O)O)NC(=O)[C@H](CC(=O)O)NC(=O)[C@H](CC(C)C)NC(=O)[C@H](CC(C)C)NC(=O)[C@@H](NC(=O)[C@H](CO)NC(=O)[C@H](Cc1ccc(O)cc1)NC(=O)[C@H](CC(=O)O)NC(=O)[C@H](CO)NC(=O)[C@@H](NC(=O)[C@](C)(Cc1ccccc1F)NC(=O)[C@@H](NC(=O)CNC(=O)[C@H](Cc1c[nH]cn1)NC(=O)C(C)(C)NC(=O)[C@@H](N)Cc1ccc(O)cc1)[C@@H](C)O)[C@@H](C)O)[C@@H](C)CC)C(=O)N[C@@H](C)C(=O)N[C@@H](CCC(N)=O)C(=O)N[C@@H](CCCCNC(=O)COCCOCCNC(=O)COCCOCCNC(=O)CC[C@H](NC(=O)CCCCCCCCCCCCCCCCCCC(=O)O)C(=O)O)C(=O)N[C@@H](CC(=O)O)C(=O)N[C@@H](Cc1ccccc1)C(=O)N[C@H](C(=O)N[C@@H](CCC(=O)O)C(=O)N[C@@H](Cc1c[nH]c2ccccc12)C(=O)N[C@@H](CC(C)C)C(=O)N[C@@H](CC(C)C)C(=O)N[C@@H](CCC(=O)O)C(=O)NCC(=O)NCC(=O)N1CCC[C@H]1C(=O)N[C@@H](CO)C(=O)N[C@@H](CO)C(=O)NCC(=O)N[C@@H](C)C(=O)N1CCC[C@H]1C(=O)N1CCC[C@H]1C(=O)N1CCC[C@H]1C(=O)N[C@@H](CO)C(=O)O)[C@@H](C)CC` [HEC-PT66] (H-Y[Aib]HGT[αMePhe(2-F)]TSDYSILLDEIAQK([AEEA-AEEA-γGlu-C20 diacid])DFIEWLLEGGPSSGAPPPS-OH) were, in that order, 12.3 nM, 7.14 nM and 0.213 nM.
As for `CC[C@H](C)[C@H](NC(=O)[C@H](Cc1ccccc1)NC(=O)[C@H](C)NC(=O)C(C)(C)NC(=O)[C@H](CCC(N)=O)NC(=O)[C@H](CCCNC(=N)N)NC(=O)[C@@H](NC(=O)[C@H](CCCCN)NC(=O)[C@H](CC(=O)O)NC(=O)[C@H](CCCCNC(=O)COCCOCCNC(=O)CC[C@H](NC(=O)CCCCCCCCCCCCCCCCC(=O)O)C(=O)O)NC(=O)[C@H](CC(C)C)NC(=O)[C@@H](NC(=O)[C@H](CO)NC(=O)[C@H](Cc1ccc(O)cc1)NC(=O)[C@H](CC(=O)O)NC(=O)[C@H](CO)NC(=O)[C@@H](NC(=O)[C@](C)(Cc1ccccc1F)NC(=O)[C@@H](NC(=O)CNC(=O)[C@H](CCC(N)=O)NC(=O)C(C)(C)NC(=O)[C@@H](N)Cc1ccc(O)cc1)[C@@H](C)O)[C@@H](C)O)[C@@H](C)CC)[C@@H](C)CC)C(=O)N[C@@H](CCC(=O)O)C(=O)N[C@@H](Cc1ccc(O)cc1)C(=O)N[C@@H](CC(C)C)C(=O)N[C@@H](CC(C)C)C(=O)N[C@@H](C)C(=O)NCC(=O)NCC(=O)N1CCC[C@H]1C(=O)N[C@@H](CO)C(=O)N[C@@H](CO)C(=O)NCC(=O)N[C@@H](C)C(=O)N1CCC[C@H]1C(=O)N1CCC[C@H]1C(=O)N1CCC[C@H]1C(=O)N[C@@H](CO)C(N)=O` [HEC-PT145] (H-Y[Aib]QGT[αMePhe(2-F)]TSDYSILK([AEEA-γGlu-C18 diacid])DKIRQ[Aib]AFIEYLLAGGPSSGAPPPS-NH2), the EC50 on GCGR was 0.066 nM; at GLP-1R, 0.126 nM; at GIPR it was 0.0316 nM.
The like results for `CC[C@H](C)[C@H](NC(=O)[C@H](Cc1ccccc1)NC(=O)[C@H](C)NC(=O)[C@H](CCCNC(=N)N)NC(=O)[C@H](CCC(N)=O)NC(=O)[C@H](C)NC(=O)[C@H](CCCCNC(=O)COCCOCCNC(=O)CC[C@H](NC(=O)CCCCCCCCCCCCCCCCCCC(=O)O)C(=O)O)NC(=O)[C@H](CCC(=O)O)NC(=O)[C@H](CC(=O)O)NC(=O)[C@H](CC(C)C)NC(=O)[C@H](CC(C)C)NC(=O)[C@@H](NC(=O)[C@H](CO)NC(=O)[C@H](Cc1ccc(O)cc1)NC(=O)[C@H](CC(=O)O)NC(=O)[C@H](CO)NC(=O)[C@@H](NC(=O)[C@](C)(Cc1ccccc1F)NC(=O)[C@@H](NC(=O)CNC(=O)[C@H](CCC(N)=O)NC(=O)C(C)(C)NC(=O)[C@@H](N)Cc1ccc(O)cc1)[C@@H](C)O)[C@@H](C)O)[C@@H](C)CC)C(=O)N[C@@H](CCC(=O)O)C(=O)N[C@@H](Cc1ccc(O)cc1)C(=O)N[C@@H](CC(C)C)C(=O)N[C@@H](CC(C)C)C(=O)N[C@@H](C)C(=O)NCC(=O)NCC(=O)N1CCC[C@H]1C(=O)N[C@@H](CO)C(=O)N[C@@H](CO)C(=O)NCC(=O)N[C@@H](C)C(=O)N1CCC[C@H]1C(=O)N1CCC[C@H]1C(=O)N1CCC[C@H]1C(=O)N[C@@H](CO)C(=O)O` [HEC-PT95] were, in that order, 0.682 nM, 0.156 nM and 0.237 nM.
For `CC[C@H](C)[C@H](NC(=O)[C@H](Cc1ccccc1)NC(=O)[C@H](C)NC(=O)[C@H](CCC(N)=O)NC(=O)[C@H](CCC(N)=O)NC(=O)[C@H](C)NC(=O)[C@H](CCCCNC(=O)COCCOCCNC(=O)CC[C@H](NC(=O)CCCCCCCCCCCCCCCCCCC(=O)O)C(=O)O)NC(=O)[C@H](CCC(=O)O)NC(=O)[C@H](CC(=O)O)NC(=O)[C@H](CC(C)C)NC(=O)[C@H](CC(C)C)NC(=O)[C@@H](NC(=O)[C@H](CO)NC(=O)[C@H](Cc1ccc(O)cc1)NC(=O)[C@H](CC(=O)O)NC(=O)[C@H](CO)NC(=O)[C@@H](NC(=O)[C@](C)(Cc1ccccc1F)NC(=O)[C@@H](NC(=O)CNC(=O)[C@H](CCC(N)=O)NC(=O)C(C)(C)NC(=O)[C@@H](N)Cc1ccc(O)cc1)[C@@H](C)O)[C@@H](C)O)[C@@H](C)CC)C(=O)N[C@@H](CCC(=O)O)C(=O)N[C@@H](Cc1ccc(O)cc1)C(=O)N[C@@H](CC(C)C)C(=O)N[C@@H](CC(C)C)C(=O)N[C@@H](CCC(=O)O)C(=O)NCC(=O)NCC(=O)N1CCC[C@H]1C(=O)N[C@@H](CO)C(=O)N[C@@H](CO)C(=O)NCC(=O)N[C@@H](C)C(=O)N1CCC[C@H]1C(=O)N1CCC[C@H]1C(=O)N1CCC[C@H]1C(=O)N[C@@H](CO)C(=O)O` [HEC-PT68], the EC50 was determined as 0.748 nM on GCGR, 0.415 nM on GLP-1R and 0.199 nM on GIPR.
Take `CC[C@H](C)[C@H](NC(=O)[C@H](Cc1ccccc1)NC(=O)[C@H](C)NC(=O)[C@H](CCCNC(=N)N)NC(=O)[C@H](CCC(N)=O)NC(=O)[C@H](CCCNC(=N)N)NC(=O)[C@H](CCCCNC(=O)COCCOCCNC(=O)CC[C@H](NC(=O)CCCCCCCCCCCCCCCCC(=O)O)C(=O)O)NC(=O)[C@H](CCC(=O)O)NC(=O)[C@H](CC(=O)O)NC(=O)[C@H](CC(C)C)NC(=O)[C@H](CC(C)C)NC(=O)[C@@H](NC(=O)[C@H](CO)NC(=O)[C@H](Cc1ccc(O)cc1)NC(=O)[C@H](CC(=O)O)NC(=O)[C@H](CO)NC(=O)[C@@H](NC(=O)[C@](C)(Cc1ccccc1F)NC(=O)[C@@H](NC(=O)CNC(=O)[C@H](Cc1c[nH]cn1)NC(=O)C(C)(C)NC(=O)[C@@H](N)Cc1ccc(O)cc1)[C@@H](C)O)[C@@H](C)O)[C@@H](C)CC)C(=O)N[C@@H](CCC(=O)O)C(=O)N[C@@H](Cc1ccc(O)cc1)C(=O)N[C@@H](CC(C)C)C(=O)N[C@@H](CC(C)C)C(=O)N[C@@H](CCC(=O)O)C(=O)NCC(=O)NCC(=O)N1CCC[C@H]1C(=O)N[C@@H](CO)C(=O)N[C@@H](CO)C(=O)NCC(=O)N[C@@H](C)C(=O)N1CCC[C@H]1C(=O)N1CCC[C@H]1C(=O)N1CCC[C@H]1C(=O)N[C@@H](CO)C(=O)O` [HEC-PT120]: the EC50 at GCGR worked out at 0.2 nM; at GLP-1R, 0.406 nM; at GIPR, 0.188 nM.
